Experimental data taken from patent publication US20070049593A1 (priority 2004, published 2007).
pIC50: −log10 of the molar value. Structures can show the parent of a compound that is named as a salt.

Target: T1, HCV polymerase (Hepatitis C virus genotype 1b, UniProt P26663)
T1 construct: a region encoding NS5B (J Virol 1991 March, 65(3), 1105-13, 544 amino acids after deletion of 47 amino acids on the C-terminal); 6xHis (C); made in house; host or cells: Escherichia coli
Experiment: biochemical
Set-up: species or system HCV BK strain
Summary of the method: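 His-tagged NS5B (BK strain, 47-aa C-terminal deletion, E. coli-expressed) at 0.5 μg/ml copied 5 μg/ml run-off RNA bearing the HCV 3′ UTR with 2 μM UTP plus [3H]UTP, 50 μM ATP/GTP, in pH 7.5 Tris with 5 mM MgCl2, 25 °C, 90 min. TCA-precipitated RNA was counted and IC50 calculated.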

T1 sequence (P26663 2420-2963): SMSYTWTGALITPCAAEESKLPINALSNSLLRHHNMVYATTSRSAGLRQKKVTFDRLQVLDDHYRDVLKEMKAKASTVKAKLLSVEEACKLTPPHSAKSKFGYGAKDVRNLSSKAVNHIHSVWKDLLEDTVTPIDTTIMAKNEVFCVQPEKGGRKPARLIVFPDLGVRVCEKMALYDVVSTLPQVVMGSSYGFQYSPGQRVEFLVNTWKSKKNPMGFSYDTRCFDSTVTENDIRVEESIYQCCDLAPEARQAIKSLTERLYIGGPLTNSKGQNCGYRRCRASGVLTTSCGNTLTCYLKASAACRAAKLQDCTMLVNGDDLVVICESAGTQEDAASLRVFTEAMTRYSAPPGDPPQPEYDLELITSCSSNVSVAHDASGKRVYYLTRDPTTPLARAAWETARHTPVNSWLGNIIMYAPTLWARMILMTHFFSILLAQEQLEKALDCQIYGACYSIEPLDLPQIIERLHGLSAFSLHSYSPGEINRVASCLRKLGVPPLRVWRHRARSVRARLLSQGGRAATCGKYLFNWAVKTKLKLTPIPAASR

Q: How did the pIC50 turn out when CN(C)Cc1ccccc1-c1cccc2c1OCCn1c-2c(C2CCCCC2)c2ccc(C(=O)O)cc21 [Example 2-343, 12-cyclohexyl-4-(2-dimethylaminomethylphenyl)-6,7-dihydro-5-oxa-7a-azadibenzo[a,e]azulene-9-carboxylic acid] was run?
A: > 7.00

Q: O=C(O)c1ccc2c(C3CCCCC3)c3n(c2c1)CCOc1c-3cccc1N1CCCCC1=O [Example 2-344, 12-cyclohexyl-4-(2-oxopiperidin-1-yl)-6,7-dihydro-5-oxa-7a-azadibenzo[a,e]azulene-9-carboxylic acid] was tested. Which pIC50 did it give?
A: > 7.00

Q: With O=C(O)c1ccc2c(C3CCCCC3)c3n(c2c1)CCOc1c-3cccc1N1CCCCC1 [Example 2-345, 12-cyclohexyl-4-(piperidin-1-yl)-6,7-dihydro-5-oxa-7a-azadibenzo[a,e]azulene-9-carboxylic acid] as the molecule, how does the pIC50 read?
A: > 7.00

Q: COc1ccc2c(c1)OCCn1c-2c(C2CCCCC2)c2ccc(C(=O)NC(C)(C)c3nc4ccc(C(=O)N(C)C)cc4[nH]3)cc21 [Example 2-346, N-[1-(6-dimethylcarbamoyl-1H-benzimidazol-2-yl)-1-methylethyl]-12-cyclohexyl-3-methoxy-6,7-dihydro-5-oxa-7a-azadibenzo[a,e]azulene-9-carboxamide] was tested. Which pIC50 did it give?
A: > 7.00

Q: COc1ccc2c(c1)OCCn1c-2c(C2CCCCC2)c2ccc(C(=O)NC(C)(C)c3nc4cc(C(=O)O)c(OC)cc4[nH]3)cc21 [Example 2-347, 2-{1-[(12-cyclohexyl-3-methoxy-6,7-dihydro-5-oxa-7a-azadibenzo[a,e]azulene-9-carbonyl)amino]-1-methylethyl}-6-methoxy-1H-benzimidazole-5-carboxylic acid] was tested. Which pIC50 did it give?
A: > 7.00

Q: COc1ccc2c(c1)OCCn1c-2c(C2CCCCC2)c2ccc(C(=O)NC(C)(C)c3nc4ccccc4o3)cc21 [Example 2-348, N-[1-(benzoxazol-2-yl)-1-methylethyl]-12-cyclohexyl-3-methoxy-6,7-dihydro-5-oxa-7a-azadibenzo[a,e]azulene-9-carboxamide] was tested. Which pIC50 did it give?
A: > 7.00

Q: COC(=O)c1ccc(NC(=O)C(C)(C)NC(=O)c2ccc3c(C4CCCCC4)c4n(c3c2)CCOc2cc(OC)ccc2-4)cc1 [Example 2-349, methyl 4-{2-[(12-cyclohexyl-3-methoxy-6,7-dihydro-5-oxa-7a-azadibenzo[a,e]azulene-9-carbonyl)amino]-2-methylpropionylamino}benzoate] was tested. Which pIC50 did it give?
A: > 7.00

Q: With COc1ccc2c(c1)OCCn1c-2c(C2CCCCC2)c2ccc(C(=O)NC(C)(C)C(=O)Nc3ccc(C(=O)O)cc3)cc21 [Example 2-350, 4-{2-[(12-cyclohexyl-3-methoxy-6,7-dihydro-5-oxa-7a-azadibenzo[a,e]azulene-9-carbonyl)amino]-2-methylpropionylamino}benzoic acid] as the molecule, how does the pIC50 read?
A: > 7.00

Q: How did the pIC50 turn out when CC(C)(NC(=O)c1ccc2c(C3CCCCC3)c3n(c2c1)CCOc1ccccc1-3)c1nc2ccccc2n1CCO [Example 2-351, N-{1-[1-(2-hydroxyethyl)-1H-benzimidazol-2-yl]-1-methylethyl}-12-cyclohexyl-6,7-dihydro-5-oxa-7a-azadibenzo[a,e]azulene-9-carboxamide] was run?
A: > 7.00

Q: COC(=O)[C@H](Cc1cccc(C(F)(F)F)c1)NC(=O)c1ccc2c(C3CCCCC3)c3n(c2c1)CCOc1cc(OC)ccc1-3 [Example 2-352, methyl (S)-2-[(12-cyclohexyl-3-methoxy-6,7-dihydro-5-oxa-7a-azadibenzo[a,e]azulene-9-carbonyl)amino]-3-(3-trifluoromethylphenyl)propionate] was tested. Which pIC50 did it give?
A: > 7.00

Q: How did the pIC50 turn out when COC(=O)C(Cc1cccc(O)c1)NC(=O)c1ccc2c(C3CCCCC3)c3n(c2c1)CCOc1cc(OC)ccc1-3 (centres unmarked) [Example 2-353, methyl 2-[(12-cyclohexyl-3-methoxy-6,7-dihydro-5-oxa-7a-azadibenzo[a,e]azulene-9-carbonyl)amino]-3-(3-hydroxyphenyl)propionate] was run?
A: > 7.00

Q: With COc1ccc2c(c1)OCCn1c-2c(C2CCCCC2)c2ccc(C(=O)N[C@@H](Cc3cccc(C(F)(F)F)c3)C(=O)O)cc21 [Example 2-354, (S)-2-[(12-cyclohexyl-3-methoxy-6,7-dihydro-5-oxa-7a-azadibenzo[a,e]azulene-9-carbonyl)amino]-3-(3-trifluoromethylphenyl)propionic acid] as the molecule, how does the pIC50 read?
A: > 7.00

Q: How did the pIC50 turn out when COc1ccc2c(c1)OCCn1c-2c(C2CCCCC2)c2ccc(C(=O)NC(Cc3cccc(O)c3)C(=O)O)cc21 (centres unmarked) [Example 2-355, 2-[(12-cyclohexyl-3-methoxy-6,7-dihydro-5-oxa-7a-azadibenzo[a,e]azulene-9-carbonyl)amino]-3-(3-hydroxyphenyl)propionic acid] was run?
A: > 7.00

Q: How did the pIC50 turn out when COC(=O)[C@H](Cc1ccncc1)NC(=O)c1ccc2c(C3CCCCC3)c3n(c2c1)CCOc1cc(OC)ccc1-3 [Example 2-356, methyl (S)-2-[(12-cyclohexyl-3-methoxy-6,7-dihydro-5-oxa-7a-azadibenzo[a,e]azulene-9-carbonyl)amino]-3-(pyridin-4-yl)propionate] was run?
A: > 7.00

Q: How did the pIC50 turn out when O=C(O)c1ccc2c(C3CCCCC3)c3n(c2c1)CCOc1c-3cccc1N(CC(=O)N1CCCOCC1)CC(=O)N1CCCOCC1 [Example 2-357, 4-{bis[2-(1,4-oxazepan-4-yl)-2-oxoethyl]amino}-12-cyclohexyl-6,7-dihydro-5-oxa-7a-azadibenzo[a,e]azulene-9-carboxylic acid] was run?
A: > 7.00

Q: With CC(C)(NC(=O)c1ccc2c(C3CCCCC3)c3n(c2c1)CCOc1ccccc1-3)C(=O)N1CCC(O)(c2ccc(F)cc2)CC1 [Example 2-358, N-{2-[4-(4-fluorophenyl)-4-hydroxypiperidin-1-yl]-1,1-dimethyl-2-oxoethyl]-12-cyclohexyl-6,7-dihydro-5-oxa-7a-azadibenzo[a,e]azulene-9-carboxamide] as the molecule, how does the pIC50 read?
A: > 7.00

Q: O=C(O)c1ccc2c(C3CCCCC3)c3n(c2c1)CCOc1c-3cccc1N(CC(=O)N1CCOCC1)CC(=O)N1CCOCC1 [Example 2-359, 4-{bis[2-(morpholin-4-yl)-2-oxoethyl]amino}-12-cyclohexyl-6,7-dihydro-5-oxa-7a-azadibenzo[a,e]azulene-9-carboxylic acid] was tested. Which pIC50 did it give?
A: > 7.00

Q: How did the pIC50 turn out when O=C(O)c1ccc2c(C3CCCCC3)c3n(c2c1)CCOc1c-3cccc1N(CCN1CCCOCC1)CCN1CCCOCC1 [Example 2-360, 4-{bis[2-(1,4-oxazepan-4-yl)ethyl]amino}-12-cyclohexyl-6,7-dihydro-5-oxa-7a-azadibenzo[a,e]azulene-9-carboxylic acid trihydrochloride] was run?
A: > 7.00

Q: With O=C(O)c1ccc2c(C3CCCCC3)c3n(c2c1)CCOc1c-3cccc1N(CCN1CCOCC1)CCN1CCOCC1 [Example 2-361, 4-{bis[2-(morpholin-4-yl)ethyl]amino}-12-cyclohexyl-6,7-dihydro-5-oxa-7a-azadibenzo[a,e]azulene-9-carboxylic acid trihydrochloride] as the molecule, how does the pIC50 read?
A: > 7.00

Q: How did the pIC50 turn out when COC(=O)Nc1ccc(C[C@H](NC(=O)c2ccc3c(C4CCCCC4)c4n(c3c2)CCOc2cc(OC)ccc2-4)C(=O)OC)cc1 [Example 2-362, methyl (S)-2-[(12-cyclohexyl-3-methoxy-6,7-dihydro-5-oxa-7a-azadibenzo[a,e]azulene-9-carbonyl)amino]-3-(4-methoxycarbonylaminophenyl)propionate] was run?
A: > 7.00
